The text below walks through data of US8980848B2, “Flavonoid dimers and their use” (The Hong Kong Polytechnic University, priority 2010, dated 2015).

Data set [1] can be described thus: Tumor cell line cytotoxicity of flavonoid dimers, LCC6. Format: cell-based, human. To be noted: human, LCC6 cells, IC50 of compound alone. The procedure, abridged:
(§1)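 LCC6, LCC6MDR and L929 cells seeded at 1×10^4 cells/well and exposed to graded doses of flavonoid dimers. Incubation 72 hrs at 37° C., 5% CO2. Read-out: % survivors.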

Data set [2] in a line: Cytotoxicity of flavonoid dimers, L929 mouse fibroblast. The data set is classed as cell-based. To be noted: mouse, L929 fibroblast cells, IC50 of compound alone, 72 hrs, mouse fibroblast. A digest of the protocol: as §1
A further data set has as its target Pgp (LCC6MDR cells) (Homo sapiens, UniProt P08183). The data set can be described thus: Cell proliferation assay: Pgp-modulating activity, reversal of anticancer drug resistance in LCC6MDR cells. The following applies: for EC50: EC50 of compounds for reversing anticancer drug resistance (nM); for EC50 / RF (Relative Fold), cpd at 0.5 μM / RF (Relative Fold), cpd at 1 μM: LCC6MDR; for Therapeutic index: IC50 of compounds for L929/EC50 of compounds for lowering paclitaxel drug resistance; for RF (Relative Fold), cpd at 0.5 μM: RF = (IC50 without modulator)/(IC50 with 0.5 μM modulator); for RF (Relative Fold), cpd at 0.5 μM / RF (Relative Fold), cpd at 1 μM: paclitaxel; for RF (Relative Fold), cpd at 1 μM: RF = (IC50 without modulator)/(IC50 with 1.0 μM modulator).

A short description of data set [3]: Tumor cell line cytotoxicity of flavonoid dimers, LCC6MDR. To be noted: human, LCC6MDR cells, IC50 of compound alone. Format: cell-based, human. A digest of the protocol:
as §1

The test system of another data set is PEM cells. The data set can be described thus: Cytotoxicity, primary mouse peritoneal elicited macrophage (PEM). Format: cell-based. As for the experimental part:
(§2) (a) Mouse Macrophage Raw 264.7 and Primary Mouse PEM Cells. The cytotoxicity assay of reference antileishmanial compounds and the compounds of this invention was performed against mouse macrophage cell line, Raw 264.7 and primary mouse PEM cells in order to calculate the therapeutic index (IC50 value for cytotoxicity of the compounds divided by IC50 value for antileishmanial activity of the compounds). The cells were grown in supplemented DMEM media in an atmosphere of 95% air with 5% CO2 at 37° C. In brief, Raw264.7 cells and PEM cells were seeded into 96-well flat bottom microtiter plate at 1×10^4cells and 2×10^4 cells per well in a final volume of 100 μL media, respectively. A graded dose of flavonoid dimers or antileishmanials was added into wells. The plate was incubated at 37° C. for 72 hrs at the atmosphere 5% CO2 in the air. The % of survivors was determined.

Another data set relates to Ld39 amastigotes. Briefly: In vitro anti-amastigote activity, Ld39 amastigotes in mouse PEM. To be noted: Leishmania donovani, in Mus musculus, 72 h, read-out: Ld39 (IC50, mM).
The test system of data set [4] is Ld39 promastigotes (SSG-resistant). Briefly: In vitro anti-promastigote activity, Ld39. To be noted: Leishmania donovani, 72 h, read-out: Anti-promastigotes activity (IC50, μM) Ld39. The data set is classed as cell-based, Leishmania donovani. How it is done:
(§3) Cell Lines and Cell Culture. Promastigotes of Leishmania donovani (wild type LdAG83, pentamidine-resistant LdAG83-PentR50, and SSG-resistant Ld39) and Leishmania major [MHOM/IL/67/JERICHO II (Lm50122), from ATCC] were used in this study.
(§4) In Vitro Anti-Promastigote Activity. The viability of promastigotes was determined by the Cell Titer 96° Aqueous Assay (Promega) that employs a tetrazolium compound (MTS, 2-(4,5-Dimethylthiazol-2-yl-)-5-[3-(carboxymethoxy)phenyl]-2-(4-sulfophenyl)-2H-tetrazolium) and electron coupling reagent, phenazine methosulfate (PMS).^7 Promastigotes were seeded into 96-well flat bottom microtiter plate at 1×10^5 cells per well in a final volume of 100 μL medium and incubated with a series concentration of synthetic flavonoid dimers or known antileishmanials. The parasites were incubated at 27° C. for 72 hrs. Fresh solution of 2 mg/mL MTS and 0.92 mg/mL PMS were prepared in a ratio of 20:1 (MTS:PMS). After 72 hrs incubation, 10 μL of MTS:PMS mixture was added into each well of microtiter plate. The plate was then incubated at 27° C. for 4 hrs for color development. After 4 hrs incubation, the OD values were determined at 490 nm using automatic microtiter plate reader (Bio-Rad).

In a further data set the test system is Lm50122 promastigotes. The data set can be described thus: In vitro anti-promastigote activity, Lm50122. The following applies: Leishmania major, 72 h, read-out: Anti-promastigotes activity (IC50, μM) Lm50122. The data set is classed as cell-based, Leishmania major. How it is done: as §3, §4
For the next data set, the system named is Raw264.7 cells. Briefly: Cytotoxicity, mouse macrophage Raw264.7. To be noted: Mus musculus, RAW264.7, 72 h. Format: cell-based. As for the experimental part:
as §2

Data set [5] has as its system LdAG83 promastigotes (wild type). The data set can be described thus: In vitro anti-promastigote activity, LdAG83. The data set is classed as cell-based, Leishmania donovani. The following applies: Leishmania donovani, 72 h, read-out: Anti-promastigotes activity (IC50, μM) LdAG83. As for the experimental part: as §3, §4
[6] abbreviates: Mus musculus, Macrophage, Table 7, cytotoxicity.
The mark [7] stands for this setting: cytotoxicity, primary mouse macrophage, 72 hrs.

Chain of Pgp (LCC6MDR cells) (P08183 whole entry): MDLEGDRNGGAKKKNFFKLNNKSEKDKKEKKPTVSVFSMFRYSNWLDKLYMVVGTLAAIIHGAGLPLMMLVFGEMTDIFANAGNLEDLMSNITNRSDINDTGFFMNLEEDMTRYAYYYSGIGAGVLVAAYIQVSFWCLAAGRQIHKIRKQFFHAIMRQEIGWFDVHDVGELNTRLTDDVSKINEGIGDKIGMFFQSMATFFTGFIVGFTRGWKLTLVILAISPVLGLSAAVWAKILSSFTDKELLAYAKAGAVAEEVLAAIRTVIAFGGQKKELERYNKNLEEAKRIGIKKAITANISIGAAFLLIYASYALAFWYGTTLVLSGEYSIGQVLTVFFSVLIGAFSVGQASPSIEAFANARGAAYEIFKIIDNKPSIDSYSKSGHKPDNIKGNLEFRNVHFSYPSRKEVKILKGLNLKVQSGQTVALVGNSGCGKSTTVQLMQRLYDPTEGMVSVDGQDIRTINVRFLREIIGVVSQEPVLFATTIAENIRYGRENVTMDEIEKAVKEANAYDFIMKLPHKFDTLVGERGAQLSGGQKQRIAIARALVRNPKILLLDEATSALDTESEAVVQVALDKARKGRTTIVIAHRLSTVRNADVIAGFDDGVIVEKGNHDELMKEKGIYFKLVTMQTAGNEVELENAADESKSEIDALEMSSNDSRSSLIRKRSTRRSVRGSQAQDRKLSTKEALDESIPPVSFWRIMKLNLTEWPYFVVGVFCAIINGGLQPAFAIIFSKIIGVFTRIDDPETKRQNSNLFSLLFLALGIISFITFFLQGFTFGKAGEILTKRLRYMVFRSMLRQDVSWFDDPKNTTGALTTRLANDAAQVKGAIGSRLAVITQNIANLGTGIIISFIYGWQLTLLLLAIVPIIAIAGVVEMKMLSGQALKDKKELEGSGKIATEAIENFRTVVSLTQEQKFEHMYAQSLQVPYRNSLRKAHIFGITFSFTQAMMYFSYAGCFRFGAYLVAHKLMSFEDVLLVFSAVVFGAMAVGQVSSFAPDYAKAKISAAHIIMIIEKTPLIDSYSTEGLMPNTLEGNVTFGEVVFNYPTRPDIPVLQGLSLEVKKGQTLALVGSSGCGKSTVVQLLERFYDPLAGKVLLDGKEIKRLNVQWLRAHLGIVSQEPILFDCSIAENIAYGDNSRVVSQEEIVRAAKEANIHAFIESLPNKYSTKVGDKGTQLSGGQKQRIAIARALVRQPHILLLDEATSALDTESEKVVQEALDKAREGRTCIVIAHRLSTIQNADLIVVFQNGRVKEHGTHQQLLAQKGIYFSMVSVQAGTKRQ
Protocol for Ld39 amastigotes: Peritoneal elicited macrophages (PEM) from mouse were obtained as previously described. A round cover slip (12 mm in diameter) was placed into each well of 24-well culture plate. Mouse macrophages were resuspended in supplemented DMEM media containing 10% heat inactivated fetal bovine serum (v/v), 100 U/mL penicillin and 100 μg/mL streptomycin and seeded into each well at a cell density of 1×10^5 cells per 500 μL. Macrophages were allowed to attach overnight and the non-adherent cells were removed by gentle washing twice with unsupplemented DMEM media. […] Non-internalized promastigotes were removed by washing with unsupplemented DMEM media for two times. Infected macrophages were further incubated in 500 μL supplemented DMEM media in the presence or absence of flavonoid dimers or known antileishmanials for 72 hrs at 37° C. After incubation, the cover slips were stained with Giemsa and the amastigotes inside each macrophage (100 macrophages per treatment) were counted under microscope. The percentage of macrophages infected and number of amastigotes per 100 macrophages was enumerated.
The % of infected macrophage and the number of amastigotes per 100 macrophages were counted by staining with Giemsa.
Protocol for Pgp (LCC6MDR cells): Cell Proliferation Assay. 6,000 cells of LCC6 or LCC6MDR and anticancer drugs (paclitaxel, vinblastine, vincristine, doxorubicin and mitoxantrone) were mixed with or without modulators to a final volume of 200 μL in each well of 96-well plates. […] The plates were then incubated for 5 days at 37° C. […] IC50 values were calculated from the dose-response curves of MTS assays (Prism 4.0).

A word on the IC50: it is the concentration that gives 50% inhibition. As usually defined, the melting point is the temperature of the solid-liquid transition. As usually defined, the EC50 is the concentration needed to bring the measured effect to its halfway point. As to `O=c1cc(-c2ccc(OCCOCCN(CCOCCOc3ccc(-c4cc(=O)c5ccccc5o4)cc3)Cc3ccc(-c4ccccc4)cc3)cc2)oc2ccccc12` [Compound 57, 1,13-Bis[4′-(4H-chromen-4-on-2-yl)phenyl]-7-(4-phenylbenzyl)-1,4,10,13-tetraoxa-7-azamidecane], the melting point was in the range of 106 to 107 °C. Moreover, in data set [1], the half-inhibitory concentration (IC50) at 72 h was greater than 99 µM. The half-maximal inhibitory concentration (IC50) at 72 h in data set [2] is greater than 69 µM. Also, the EC50 on Pgp (LCC6MDR cells) (Daunorubicin) came to 76 ± 14 nM. In addition, the EC50 at Pgp (LCC6MDR cells) (Doxorubicin) came out at 94 ± 1 nM. In addition, on Pgp (LCC6MDR cells) (Mitoxantrone), the EC50 was found to be 65 ± 19 nM. Further, the EC50 at Pgp (LCC6MDR cells) (Paclitaxel) worked out at 72 ± 21 nM. At Pgp (LCC6MDR cells) (Vinblasinte, vinblastine), the half-maximal effective concentration (EC50) came to 38 ± 10 nM. Also, the concentration for a half-maximal effect (EC50) on Pgp (LCC6MDR cells) (Vincristine) stood at 83 ± 12 nM. Further, on Pgp (LCC6MDR cells), the Therapeutic index is reported as greater than 958.3; the “RF (Relative Fold), cpd at 0.5 μM” value is reported as “(102.1)”; the “RF (Relative Fold), cpd at 1 μM” value is on record as “(117.8)”. The IC50 at 72 h in data set [3] was greater than 62 µM.

Take `O=c1cc(-c2ccc(OCCOCCN(CCOCCOc3ccc(-c4cc(=O)c5ccccc5o4)cc3)Cc3ccc(F)cc3)cc2)oc2ccccc12` [Compound 34, 1,13-Bis[4′-(4H-chromen-4-on-2-yl)phenyl]-7-(4-fluorobenzyl)-1,4,10,13-tetraoxa-7-azamidecane]: the melting point is 119 to 122 °C. In data set [1], this compound displayed an IC50 at 72 h greater than 100 µM. Moreover, in data set [2], the IC50 at 72 h was 19.7 µM. The EC50 at Pgp (LCC6MDR cells) (Paclitaxel) was found to be 255 ± 5 nM. Also, at Pgp (LCC6MDR cells), the Therapeutic index was found to be 77.3 and the “RF (Relative Fold), cpd at 0.5 μM” value is given as “(31.2)”. This compound came in with an IC50 at 72 h in data set [3] greater than 83 µM.

On to `O=c1c(O)c(-c2ccc(O)c(O)c2)oc2cc(O)cc(O)c12` [Quercetin, quercetin], for which the IC50 was greater than 100 µM in the data set with PEM cells (setting [6]), greater than 100 µM in the data set on PEM cells (setting [7]) and 0.006 ± 0.0011 mM with Ld39 amastigotes.

Take `O=c1cc(-c2ccc(O)c(O)c2)oc2cc(O)cc(O)c12` [Luteolin, luteolin]: the values for the half-maximal inhibitory concentration (IC50) with PEM cells (setting [6]), in the data set on PEM cells (setting [7]) and with Ld39 amastigotes were 77.7 ± 7.7 µM, 77.7 ± 7.7 µM and 0.0077 ± 0.0036 mM, respectively.

With `O=c1cc(-c2ccc(OCCOCCN(CCOCCOc3ccc(-c4cc(=O)c5ccccc5o4)cc3)Cc3cccc4ccccc34)cc2)oc2ccccc12` [Compound 59, 1,13-Bis[4′-(4H-chromen-4-on-2-yl)phenyl]-7-(1-naphthalenylmethyl)-1,4,10,13-tetraoxa-7-azamidecane], the melting point was 96 to 97 °C. In addition, in [1], the IC50 at 72 h was greater than 100 µM. Besides, the concentration for half-maximal inhibition (IC50) at 72 h in [2] is greater than 100 µM. Besides, at Pgp (LCC6MDR cells), the “RF (Relative Fold), cpd at 0.5 μM” value is given as “(2.2)” and the “RF (Relative Fold), cpd at 1 μM” value is “(80.6)”. For the same compound, the 50% inhibitory concentration (IC50) at 72 h in [3] was greater than 100 µM.

`O=c1cc(-c2ccc(OCCOCCN(CCOCCOc3ccc(-c4cc(=O)c5ccccc5o4)cc3)Cc3ccc4c(c3)OCO4)cc2)oc2ccccc12` [Compound 42e, 1,13-Bis[4′-(4H-chromen-4-on-2-yl)phenyl]-7-(5-piperonyl)-1,4,10,13-tetraoxa-7-azamidecane] returned a melting point of 69 to 70 °C. The half-inhibitory concentration (IC50) at 72 h in [1] is greater than 100 µM. Further, the 50% inhibitory concentration (IC50) at 72 h in data set [2] was greater than 100 µM. In addition, at Pgp (LCC6MDR cells) (Paclitaxel), the half-maximal effective concentration (EC50) was found to be 204 ± 20 nM. In addition, on Pgp (LCC6MDR cells), the Therapeutic index is recorded as greater than 490.2; the “RF (Relative Fold), cpd at 0.5 μM” value was “(31.2)”; the “RF (Relative Fold), cpd at 1 μM” value is recorded as “(117.8)”. In data set [3], this compound gave an IC50 at 72 h greater than 100 µM.

In turn, `O=C(c1ccccc1)c1ccc(CN(CCOCCOc2ccc(-c3cc(=O)c4ccccc4o3)cc2)CCOCCOc2ccc(-c3cc(=O)c4ccccc4o3)cc2)cc1` [Compound 61, 1,13-Bis[4′-(4H-chromen-4-on-2-yl)phenyl]-7-(4-benzoylbenzyl)-1,4,10,13-tetraoxa-7-azamidecane] had a melting point of 71 to 72 °C. Moreover, the IC50 at 72 h in data set [1] was greater than 91 µM. In addition, the IC50 at 72 h in data set [2] is greater than 100 µM. Moreover, at Pgp (LCC6MDR cells), the “RF (Relative Fold), cpd at 0.5 μM” value was “(1.9)” and the “RF (Relative Fold), cpd at 1 μM” value is recorded as “(30.0)”. This compound gave an IC50 at 72 h in data set [3] greater than 100 µM.

For the compound `COC(=O)c1ccc(CN(CCOCCOc2ccc(-c3cc(=O)c4ccccc4o3)cc2)CCOCCOc2ccc(-c3cc(=O)c4ccccc4o3)cc2)cc1` [Compound 20, 1,13-Bis[4′-(4H-chromen-4-on-2-yl)phenyl]-N-(4-methoxycarbonylbenzyl)-1,4,10,13-tetraoxa-7-azamidecane], the IC50 was greater than 100 µM in data set [4], greater than 100 µM in the data set on Lm50122 promastigotes, 45.7 ± 19.1 µM with Raw264.7 cells and greater than 100 µM in [5]. Moreover, the results for the half-maximal inhibitory concentration (IC50) at 72 h in data set [1], in [2] and in data set [3] were 33.3 ± 10.8 µM, 11.4 ± 4.4 µM and 64.8 ± 14.1 µM, respectively. Further, the “RF (Relative Fold), cpd at 0.5 μM” value at Pgp (LCC6MDR cells) is “(2.1)”.

`O=c1cc(-c2ccc(OCCOCCN(CCOCCOc3ccc(-c4cc(=O)c5ccccc5o4)cc3)Cc3ccc(Cl)cc3)cc2)oc2ccccc12` [Compound 49, 1,13-Bis[4′-(4H-chromen-4-on-2-yl)phenyl]-7-(4-chlorobenzyl)-1,4,10,13-tetraoxa-7-azamidecane] showed a melting point of 81 to 82 °C. Moreover, the 50% inhibitory concentration (IC50) at 72 h in data set [1] is greater than 100 µM. Also, the IC50 at 72 h in [2] was greater than 78 µM. Moreover, the EC50 at Pgp (LCC6MDR cells) (Paclitaxel) amounted to 177 ± 14 nM. For the same compound, on Pgp (LCC6MDR cells), the Therapeutic index is greater than 440.7; the “RF (Relative Fold), cpd at 0.5 μM” value is recorded as “(41.4)”; the “RF (Relative Fold), cpd at 1 μM” value is given as “(95.7)”. The compound further yielded a half-inhibitory concentration (IC50) at 72 h in [3] greater than 100 µM.

As for `O=c1cc(-c2ccc(OCCOCCN(CCOCCOc3ccc(-c4cc(=O)c5ccccc5o4)cc3)Cc3ccc(F)c(F)c3)cc2)oc2ccccc12` [Compound 38, 1,13-Bis[4′-(4H-chromen-4-on-2-yl)phenyl]-7-(3,4-difluorobenzyl)-1,4,10,13-tetraoxa-7-azamidecane], the melting point is 96 to 98 °C. Also, in [1], the 50% inhibitory concentration (IC50) at 72 h was 32.5 ± 11 µM. The compound also registered an IC50 at 72 h in data set [2] of 42.2 ± 2.1 µM. At Pgp (LCC6MDR cells), the “RF (Relative Fold), cpd at 0.5 μM” value is reported as “(49.3)”. This compound also yielded an IC50 at 72 h in data set [3] of 33.6 ± 4.3 µM.
